In US20080113956A1, “Substituted Porphyrins” (priority 1997, published 2008):

Tested on: isolated, perfused mouse liver
Assay: Isolated, perfused mouse liver, global ischemia/reperfusion injury
Settings: 10 μm in perfusate
Description: The ability of Mn TE-2-PyP to attenuate injury associated with 60 minutes of global ischemia followed by 90 minutes of reperfusion was assessed in an isolated, perfused mouse liver model. Excised livers were perfused with a buffered salt solution for 15 minutes after which the metalloporphyrin was introduced into the perfusate and the liver perfused in a recirculating system for an additional 15 minutes. The livers were then rendered globally ischemic under normal thermic conditions for 60 minutes. Following the ischemic period the livers were perfused for 90 minutes with perfusate supplemented with 10 μm Mn TE-2-PyP. In this model the ischemia/reperfused livers have a marked release of hepatocellular enzymes, aspartate transaminase, alanine transaminase, and lactate dehydrogenase during the first 2½ minutes of reperfusion. This is followed by a progressive release of hepatocellular enzymes indicating hepatocellular injury over the 90 minute perfusion period. […] At the end of the experiments liver […]. […] They remain firm and with a normal texture to gross morphologic examination.

## CC[n+]1ccccc1-c1c2nc(c(-c3cccc[n+]3CC)c3ccc([n-]3)c(-c3cccc[n+]3CC)c3nc(c(-c4cccc[n+]4CC)c4ccc1[n-]4)C=C3)C=C2.[Mn+3] [MnTE-2-PyP^5+, manganic meso-tetrakis-(N-ethylpyridinium-2-yl)porphyrin]
60 minutes global ischemia, 90 minutes reperfusion
  attenuation of liver injury: highly efficacious in attenuating the liver injury
First 2½ minutes of reperfusion
  acute hepatocellular enzyme release: blocking virtually all
Over the 90 minute perfusion period
  progressive hepatocellular enzyme release: blocking progressive hepatocellular enzyme release
